{"source": "patent US8278100B2", "about": "“Lasonolide compounds as reagents for inducing premature chromosome condensation and methods for treating disorders” (The United States of America, as Represented by the …, priority 2008, dated 2012)", "key": {"[1]": {"tested_on": "MDA-MB-231 cells", "assay": "Cell cycle analysis", "type": "cell-based, human", "conditions": "24 h treatment", "description": "(§1) After treatment, cells were collected, washed twice with ice-cold PBS, and fixed overnight with 70% precooled (−20° C.) ethanol. Fixed cells were resuspended in PBS containing 0.02 mg/mL RNase A (Roche, USA) and incubated at 37° C. for 15 min. Next, the cells were stained with 0.01 mg/mL propidium iodide (Sigma) in the dark at room temperature for 10 min. The DNA content was analyzed by flow cytometry using a FACSCalibur (Becton Dickinson, Sunnyvale, Calif.) with Cellquest and Modfit LT3.0 software (Becton Dickinson) (FIGS. 1D & 2A)."}, "[2]": {"tested_on": "CA46 cells", "assay": "Cell cycle analysis", "type": "cell-based, human", "conditions": "24 h treatment", "description": "as §1"}, "[3]": {"tested_on": "breast cancer MDA-MB-231 cells", "assay": "PCC induction and PI staining", "type": "cell-based, human", "conditions": "1 h", "description": "(§2) Burkitt's Lymphoma CA46 cells (500,000) (FIG. 1B) or breast cancer MDA-MB-231 cells (500,000) (FIG. 1A) were treated by 100 nM Lasonolide A (stock solution 100 μM in DMSO) for 1 h. Lymphocytes were treated with 200 nM Lasonolide A for 1 h. Cells were harvested with centrifuging on 2,000 rpm for 5 min at 4° C. Pellets were washed once by PBS and re-suspended in 1 mL PBS. 200 μL cells mixture were added to the chamber for cytospining. Cells were cytospun on 800 rpm for 10 min; slides were fixed in fresh-made 4% paraformaldehyde fixation for 20 min at room temperature, then moved to 70% ethanol for 20 min. Slides were stained with Propidium Iodide (“PI”) (20 μg/mL) and RNase A (100 μg/mL) for 15 min. Slides were washed with PBS for three times and mounted with Vectashield anti-fade mounting media (Vector Laboratories, Inc., Burlingame, Calif.). Images were taken using a Nikon Eclipse TE-300 confocal microscope."}, "[4]": {"tested_on": "Burkitt's Lymphoma CA46 cells", "assay": "PCC induction and PI staining", "type": "cell-based, human", "conditions": "1 h", "description": "as §2"}, "[5]": {"tested_on": "chromosome condensation in each phase of the cell cycle", "assay": "Chromosome spread assay", "type": "cell-based", "description": "After the induction of PCC by Lasonolide A, cells were incubated in hypotonic solution (10 mM Tris-HCl [ph 7.4], 40 mM glycerol, 20 mM NaCl, 1 mM CaCl2, 0.5 mM MgCl2) at 37° C. for 15 min. Then followed with cytospining at 1,800 rpm for 10 min and normal PI staining as above (FIG. 1E)."}, "[6]": {"tested_on": "MDA-MB-231 cells", "assay": "BrdU incorporation", "type": "cell-based, human", "description": "(§3) A number of cells (5×10^5) were pulse-labeled with 50 μmol/L BrdU (Calbiochem, La Jolla, Calif.) for 30 minutes. Cells were collected, fixed in 70% ethanol at 4° C., washed with PBS, resuspended in 3 mL 2 mol/L HCl/0.5% Triton X-100, and left at room temperature for 30 minutes. Cells were spun down after adding 6 mL 0.1 M sodium borate (pH 8.5). Pellets were washed with PBS/0.5% Tween-20 twice, then resuspended in 15 μL FITC-conjuncted anti-BrdU antibody (Becton Dickinson, Franklin Lakes, N.J.). After incubation with the anti-BrdU antibody at room temperature for 60 minutes, pellets were washed once with PBS, and resuspended in 500 μL of PI solution (50 μg/mL PI and 50 μg/mL RNase). Analyses were done with a FACScan flow cytometer (Becton Dickinson, San Jose, Calif.) (FIG. 2B)."}, "[7]": {"tested_on": "CA 46 cells", "assay": "BrdU incorporation", "type": "cell-based, human", "description": "as §3"}, "[8]": {"tested_on": "phosphorylated-H3 Ser28 in CA46 cells", "assay": "Immunofluorescence assay", "type": "cell-based, human", "description": "After drug treatments, CA46 cells were cytospun on the slides. Slides were fixed for 20 min with 4% paraformaldehyde in PBS (pH 7.4), and washed twice with PBS. After incubation for 20 min with 70% ethanol and washing with PBS, the cells were incubated in blocking buffer [8% bovine serum albumin (BSA) in PBS] for 1 h before incubation for 2 h with primary antibodies against phosphorylated-H3 Ser28 (Cell signaling) (FIG. 5). Slides were incubated for additional 1 h with the Alex488-conjugated secondary antibody (Alexa Fluoro 488 donkey anti-goat IgG, Molecular Probes, Invitrogen, CA). After three washes in PBS, cells were stained with 0.5 μg/mL propidium iodide (PI) and 100 μg/mL RNase A (Sigma, Mo.) for 15 min in the dark. Finally, slides were washed with PBS for three times and mounted with Vectashield anti-fade mounting media (Vector Laboratories, Inc., Burlingame, Calif.). Images were taken using a Nikon Eclipse TE-300 confocal microscope."}, "[9]": {"tested_on": "tumor cells", "assay": "Premature chromosome condensation (PCC) induction, cells not specified", "type": "cell-based", "description": "as §2"}, "[10]": {"target": "T1, PP2A (Homo sapiens, UniProt P67775)", "T1 construct": "purchased Upstate", "T1 sequence (P67775 whole entry)": "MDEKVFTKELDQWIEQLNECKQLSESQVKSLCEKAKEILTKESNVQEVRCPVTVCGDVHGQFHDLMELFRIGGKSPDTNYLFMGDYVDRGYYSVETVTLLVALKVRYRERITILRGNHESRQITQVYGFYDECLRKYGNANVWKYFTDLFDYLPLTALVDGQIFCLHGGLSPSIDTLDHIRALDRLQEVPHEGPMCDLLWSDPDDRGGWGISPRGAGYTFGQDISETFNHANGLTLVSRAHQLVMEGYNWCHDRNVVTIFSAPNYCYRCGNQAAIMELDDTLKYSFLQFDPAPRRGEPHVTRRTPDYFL", "T1 sequence (P30153 2-589 partner limits assumed)": "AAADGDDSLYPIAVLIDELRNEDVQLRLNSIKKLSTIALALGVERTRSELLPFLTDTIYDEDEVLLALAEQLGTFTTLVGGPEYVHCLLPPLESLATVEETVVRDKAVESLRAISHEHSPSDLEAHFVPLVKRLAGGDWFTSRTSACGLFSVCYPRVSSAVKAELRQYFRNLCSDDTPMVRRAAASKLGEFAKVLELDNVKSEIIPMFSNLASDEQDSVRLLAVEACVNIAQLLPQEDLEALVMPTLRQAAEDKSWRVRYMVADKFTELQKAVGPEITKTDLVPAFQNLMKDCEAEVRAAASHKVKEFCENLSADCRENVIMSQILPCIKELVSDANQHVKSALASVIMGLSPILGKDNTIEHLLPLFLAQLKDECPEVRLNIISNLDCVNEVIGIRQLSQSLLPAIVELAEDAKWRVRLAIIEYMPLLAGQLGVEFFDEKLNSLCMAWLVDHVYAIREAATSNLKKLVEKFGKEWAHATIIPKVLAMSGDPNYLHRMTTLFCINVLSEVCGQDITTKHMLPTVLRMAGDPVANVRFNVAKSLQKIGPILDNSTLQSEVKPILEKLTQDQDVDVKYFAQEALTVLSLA", "assay": "In vitro phosphatase activity assay", "type": "biochemical", "conditions": "compared with Okadaic Acid", "description": "(§4) The inhibitory effect of active agents on PP2A or PP1 enzyme activity was determined by measuring the generation of free PO4 from the phosphopeptide RRA(pT)VA, using the molybdate-malachite green-phosphate complex assay. The phosphatase assay was performed in a PP2A-specific reaction buffer [50 mM imidazole (pH 7.2), 0.2 mM EGTA, 0.02% 2-mercaptoethanol, 0.1 mg/mL of bovine serum albumin] using 10 μ/M phosphopeptide substrate and 0.03 Units PP2A (Upstate), or in PP1-specific reaction buffer [50 mM HEPES, 2 mM Dithiothreitol, 0.025% Tween-20, 0.1 mM EGT 100 mM NaCl] together with 100 μM phosphopeptide substrate and 0.03 Units PP1 (Biolabs). Different concentrations of active agents were added in the reaction system. After a 20-min incubation at 30° C., molybdate dye was added, and the amount of free phosphate generated was determined from the optical density at 630 nm (VERSAmax, Molecular Device), using a standard curve for free phosphate. Phosphatase activity was defined as picomoles of free PO4 generated per minute per microgram of protein, and phosphatase activity without drug was defined as 100% (FIGS. 3C & 3D)."}, "[11]": {"target": "T2, PP1 (Oryctolagus cuniculus, UniProt P62139)", "T2 construct": "purchased Biolabs", "T2 sequence (P62139 whole entry)": "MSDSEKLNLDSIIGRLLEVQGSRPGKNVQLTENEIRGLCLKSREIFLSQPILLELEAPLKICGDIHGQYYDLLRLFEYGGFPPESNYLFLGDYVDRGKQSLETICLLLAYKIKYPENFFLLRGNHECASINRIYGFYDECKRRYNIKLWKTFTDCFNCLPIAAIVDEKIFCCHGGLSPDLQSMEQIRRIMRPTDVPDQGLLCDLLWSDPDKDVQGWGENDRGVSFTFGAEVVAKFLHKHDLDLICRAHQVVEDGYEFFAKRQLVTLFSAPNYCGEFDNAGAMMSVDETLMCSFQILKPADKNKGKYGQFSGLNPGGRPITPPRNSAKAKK", "assay": "In vitro phosphatase activity assay", "type": "biochemical", "conditions": "compared with Okadaic Acid", "description": "as §4"}}, "note": "Where “and” joins values, the source holds several entries; their conditions need not be identical. Equal values may be shown once. Entries after “also recorded” stand apart in the source; their conditions may differ."}
{"smiles": "C=C(CCC(C)C)COC(=O)[C@H](O)C/C=C\\C[C@@H]1O[C@@H]2/C=C/C/C=C/C(C)=C\\[C@H]3O[C@@H](C/C=C/C=C/C(=O)O[C@H](C2)[C@@]1(C)CO)C[C@H](O)[C@H]3C", "note": "[Lasonolide A]", "values": [{"measurement": "cell cycle arrest", "setting": "[1]", "value": "induced cell cycle arrest at G2/M phase"}, {"measurement": "cell cycle arrest", "setting": "[2]", "value": "induced cell cycle arrest at G2/M phase"}, {"measurement": "PCC induction (in words)", "setting": "[3]; 100 nM", "value": "induced premature chromosome condensation (PCC)"}, {"measurement": "cells with PCC", "setting": "[3]", "value": 13, "unit": "%"}, {"measurement": "cells with premature chromosome condensation (PCC)", "setting": "[4]; 100 nM Lasonolide A", "value": "97.9% and 99.5%"}, {"measurement": "PCC induction (in words)", "setting": "[4]; 100 nM", "value": "induced premature chromosome condensation (PCC)"}, {"measurement": "cell cycle phases in which PCC is induced", "setting": "[5]", "value": "induce PCC in each phases of cell cycle; also recorded: induce PCC in each phase of the cell cycle"}, {"measurement": "DNA replication (BrdU incorporation)", "setting": "[6]", "value": "decelerated DNA replication"}, {"measurement": "DNA replication (BrdU incorporation)", "setting": "[7]", "value": "decelerated DNA replication"}, {"measurement": "phosphorylation of H3 (Ser28), immunofluorescence", "setting": "[8]", "value": "showed the phosphorylation of H3 (Ser28)"}, {"measurement": "reversibility of PCC induction", "setting": "[9]", "value": "reversible"}, {"measurement": "time to PCC induction", "setting": "[9]; nanomolar concentrations", "value": "≤ 1", "unit": "h"}, {"measurement": "PCC induction compared with Okadaic Acid", "setting": "[9]; tumor cells and normal human lymphocytes", "value": "more potent ability of PCC induction"}, {"measurement": "inhibitory effect on PP2A", "setting": "[10]", "value": "weaker inhibitory effect"}, {"measurement": "inhibitory effect on PP1", "setting": "[11]", "value": "weaker inhibitory effect"}]}
